Source: PMC4558462, “A new small molecule inhibitor of soluble guanylate cyclase” (Bioorganic & Medicinal Chemistry, 2015)
“Also recorded” adds a separate entry of the source. Like-named read-outs stand apart in the source and are kept apart here.

How the values were obtained:
sGCcat = molecular target: T1, sGCcat (Homo sapiens, UniProt Q02108+Q02153); test: SPR binding to catalytic domain of sGC
T1 construct: a smaller construct of the catalytic domain (sGCcat)
T1 sequence (Q02108 481-608 limits assumed): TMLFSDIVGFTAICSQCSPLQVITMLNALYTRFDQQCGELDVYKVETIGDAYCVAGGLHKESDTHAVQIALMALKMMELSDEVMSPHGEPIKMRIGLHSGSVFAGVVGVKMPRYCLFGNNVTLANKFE
T1 sequence (Q02153 421-554 limits assumed): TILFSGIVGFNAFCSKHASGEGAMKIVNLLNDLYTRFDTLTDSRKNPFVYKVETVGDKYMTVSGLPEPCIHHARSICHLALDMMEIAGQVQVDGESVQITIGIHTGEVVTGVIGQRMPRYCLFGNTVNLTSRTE
Method: We have previously described a surface plasmon resonance-based assay for the detection of binding of small molecules to full-length sGC and a smaller construct of the catalytic domain (sGCcat).[24] This assay was used to measure the binding of the compounds to sGCcat.[24] […] The position of the hydroxyl group can be changed whilst retaining binding strength and activity.
Surface plasmon resonance (SPR) experiments were performed with a Biacore T200 instrument at 25 °C. Data processing and analysis were performed using BIAevaluation software and Scrubber2. All sensorgrams were double referenced by subtracting the response in a reference flowcell and a blank sample. Materials and methods used were the same as previously published.[24]

[1] = tested on: NMDA-stimulated cGMP production in cerebellar slices; test: NMDA-stimulated cGMP production in rat cerebellar slices; assay type: cell-based; settings: 100 μM
Method: The ability of compound 10 to inhibit sGC in tissues was explored using NMDA-stimulated cGMP production in cerebellar slices, which depends on NO formation. Rat cerebellar slices were pre-incubated with compound 10 then treated with NMDA.
Brain slices methods were conducted as described in detail.[37,38] Briefly, 0.4 mm thick sagittal cerebellar slices from 10-day-old animals were cut using a McIlwain tissue chopper. Experiments were carried out in the presence of the broad spectrum phosphodiesterase inhibitor IBMX (1 mM; 10 min preincubation) and, when appropriate, antagonists were added 10 min prior to IBMX. Following treatment, brain slices were inactivated in boiling Tris–HCl buffer (50 mM, pH 7.5) containing EDTA (4 mM) and homogenised by sonication after which aliquots were removed for measurement of protein (bicinchoninic acid method) and cGMP (radioimmunoassay).

adenylyl cyclase = test: Adenylyl cyclase activity (data not shown); assay type: biochemical
Source text: The sGC heterodimer is composed of a α-subunit and a shorter β-subunit which presents in the N-terminal the prosthetic haem group bound to histidine-105.[27] Each subunit is composed of a haem-nitric oxide binding domain, a PAS-like domain, a coiled-coil bundle, and the C-terminal catalytic domain where turnover of GTP into cGMP occurs.[28] […] The two sites are different, and small molecules can bind to one or to both sites, thus showing a 1:1 or 1:2 binding ratio. We have previously shown by surface plasmon resonance (SPR) that ATP binds to both sites and may inhibit sGC activity via competition with GTP, highlighting the potential for allosteric regulation of the enzyme.[24] GC domains are also present in the membrane-bound natriuretic peptide receptors type-A and type-B. There receptors, also referred to as particulate GCs (pGCs), are activated by binding of natriuretic peptides to the extracellular domain of the receptors, leading to an increase in GTP turnover at the intracellular GC domain.[32–34] In this study we observed by SPR that compound 10 bound to the catalytic domain of sGC in a 1:1 ratio. […] However, activity against kinases or phosphodiesterases was not investigated.

membrane-bound GCs (pGC) = molecular target: T2, membrane-bound GCs (pGC) (Rattus norvegicus, UniProt P18910); test: Particulate guanylate cyclase assay in purified rat lung membranes; assay type: biochemical
T2 sequence (P18910 29-1057): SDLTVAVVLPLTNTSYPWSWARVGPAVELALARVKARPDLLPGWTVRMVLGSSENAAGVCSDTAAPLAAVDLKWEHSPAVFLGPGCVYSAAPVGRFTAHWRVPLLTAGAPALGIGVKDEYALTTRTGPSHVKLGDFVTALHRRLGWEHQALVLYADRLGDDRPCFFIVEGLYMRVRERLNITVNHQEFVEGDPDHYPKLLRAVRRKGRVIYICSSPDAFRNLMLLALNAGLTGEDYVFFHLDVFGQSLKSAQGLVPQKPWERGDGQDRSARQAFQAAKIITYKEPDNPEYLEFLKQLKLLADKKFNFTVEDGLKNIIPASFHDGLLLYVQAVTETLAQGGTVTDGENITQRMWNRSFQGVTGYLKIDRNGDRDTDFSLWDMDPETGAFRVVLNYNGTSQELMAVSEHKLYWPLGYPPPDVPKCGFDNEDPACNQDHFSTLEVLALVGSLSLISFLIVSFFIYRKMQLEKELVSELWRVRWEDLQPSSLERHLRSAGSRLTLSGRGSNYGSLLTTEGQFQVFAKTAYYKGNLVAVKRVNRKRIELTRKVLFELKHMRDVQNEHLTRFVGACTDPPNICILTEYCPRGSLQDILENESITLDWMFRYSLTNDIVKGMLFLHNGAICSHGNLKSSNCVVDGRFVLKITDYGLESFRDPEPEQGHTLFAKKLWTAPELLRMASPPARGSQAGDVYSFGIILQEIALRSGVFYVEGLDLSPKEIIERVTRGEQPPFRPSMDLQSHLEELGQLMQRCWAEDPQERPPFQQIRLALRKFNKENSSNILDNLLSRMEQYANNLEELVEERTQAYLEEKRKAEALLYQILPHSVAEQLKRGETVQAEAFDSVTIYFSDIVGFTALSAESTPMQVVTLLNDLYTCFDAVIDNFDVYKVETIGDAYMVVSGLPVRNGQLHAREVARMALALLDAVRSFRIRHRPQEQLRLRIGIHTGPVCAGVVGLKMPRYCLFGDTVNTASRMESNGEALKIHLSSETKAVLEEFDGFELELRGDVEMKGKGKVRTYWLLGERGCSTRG
Method: Purified rat lung membranes (20 μg protein/200 μL) were incubated in Tris buffer with 10 mM phosphocreatine, 10 units/mL creatine phosphokinase, and 10 μM ODQ to inhibit NO-activated GC. The reaction took place with 0.3 mM MgCl, 0.5 mM MgATP, and 1 mM MgGTP, at 37 °C. The compound was added and 1 μM ANP used to activate pGC. cGMP formation was allowed to proceed for 10.5–12.5 min and was subsequently measured by radioimmunoassay.

O=[N+]([O-])c1ccc2nc(Nc3ccc(O)cc3)c(Nc3ccc(O)cc3)nc2c1 [Compound 10, 4,4′-((6-Nitroquinoxaline-2,3-diyl)bis(azanediyl))diphenol]
Kd (sGCcat): 11.4 ± 1.8 µM
sGCcat (SPR) binding norm. resp. (RU) (sGCcat; Biacore T200, 25 °C): 14.4 ± 1.7 RU
binding to sGCcat (in words) (sGCcat; discussion of Table 1): higher binding
Kd (sGCcat; listed as D12): 11 µM
inhibition of NMDA-induced cGMP generation [1]: almost completely; also recorded: inhibits cGMP production
activity on adenylyl cyclase (adenylyl cyclase; basal): no activity
activity on adenylyl cyclase (adenylyl cyclase; forskolin-stimulated): no activity
Hill slope (membrane-bound GCs (pGC); Basal (listed under ANP group)): 2
IC50 (membrane-bound GCs (pGC); Basal (listed under ANP group)): 15 ± 2 µM
Hill slope (membrane-bound GCs (pGC); GC activator ANP 10 nM): 2
IC50 (membrane-bound GCs (pGC); GC activator ANP 10 nM, rat lung membranes, 10 μM ODQ): 21 ± 3 µM
Hill slope (membrane-bound GCs (pGC); GC activator ANP 1 μM): 1
IC50 (membrane-bound GCs (pGC); GC activator ANP 1 μM, rat lung membranes, 10 μM ODQ): 25 ± 13 µM
inhibition of pGC-generated cGMP (in words) (membrane-bound GCs (pGC); rat lung membranes, atrial natriuretic peptide stimulation, 10 μM ODQ): showed inhibition; also recorded: Inhibition of particulate GC was also observed
